Numbers after ± are expanded uncertainties.
Legend:
[1] = refractive index (Na D-line) (dimensionless); xn = mol fraction of the nth substance listed; details: 100 kPa, Liquid, Standard Abbe refractometry, x2 = 0
[2] = xn = mol fraction of the nth substance listed; details: 100 kPa, Liquid, x2 = 0; for viscosity: Concentric cylinders viscometry; for mass density: Vibrating tube method

CCC(C)=O [butanone] + OCCCO
Details	mass density, [2] [kg/m3]	refractive index, [1]	viscosity, [2] [mPa·s]
288.15 K	810.067 ± 0.2	1.38157 ± 0.00035	0.4308 ± 0.0065
293.15 K	804.863 ± 0.2	1.37901 ± 0.00035	0.4152 ± 0.0064
298.15 K	799.632 ± 0.21	1.37642 ± 0.00035	0.3992 ± 0.0062
303.15 K	794.371 ± 0.21	1.37386 ± 0.00035	0.3826 ± 0.0061
308.15 K	789.078 ± 0.21	1.37125 ± 0.00035	0.3665 ± 0.0059
313.15 K	783.752 ± 0.21	1.36857 ± 0.00035	0.3499 ± 0.0058
318.15 K	778.389 ± 0.21	1.36589 ± 0.00035	0.3336 ± 0.0057
323.15 K	772.985 ± 0.21	1.36315 ± 0.00035	0.3174 ± 0.0055
328.15 K	767.539 ± 0.21	1.36042 ± 0.00035	0.3001 ± 0.0054
333.15 K	762.048 ± 0.21	1.35746 ± 0.00035	0.2829 ± 0.0052

CCC(C)=O [butanone] + c1ccncc1
Details	mass density, [2] [kg/m3]	refractive index, [1]	viscosity, [2] [mPa·s]
288.15 K	810.067 ± 0.2	1.38157 ± 0.00035	0.4308 ± 0.0065
293.15 K	804.863 ± 0.2	1.37901 ± 0.00035	0.4152 ± 0.0064
298.15 K	799.632 ± 0.21	1.37642 ± 0.00035	0.3992 ± 0.0062
303.15 K	794.371 ± 0.21	1.37386 ± 0.00035	0.3826 ± 0.0061
308.15 K	789.078 ± 0.21	1.37125 ± 0.00035	0.3665 ± 0.0059
313.15 K	783.752 ± 0.21	1.36857 ± 0.00035	0.3499 ± 0.0058
318.15 K	778.389 ± 0.21	1.36589 ± 0.00035	0.3336 ± 0.0057
323.15 K	772.985 ± 0.21	1.36315 ± 0.00035	0.3174 ± 0.0055
328.15 K	767.539 ± 0.21	1.36042 ± 0.00035	0.3001 ± 0.0054
333.15 K	762.048 ± 0.21	1.35746 ± 0.00035	0.2829 ± 0.0052

Source: the NIST ThermoML archive (doi:10.1016/j.fluid.2016.02.031)
